# Experimental data published in US20230278981A1, “DICHLOROPHENOL HSD17B13 INHIBITORS AND USES THEREOF” (INIPHARM, INC., priority 2020, published 2023).
# Molecular target: HSD17B13 (Homo sapiens (Human), UniProt Q7Z5P4)
# Assay: LC/MS estrone detection assay: conversion of estradiol to estrone by HSD17B13
# Assay type: biochemical
# Details: 4 μM estradiol, 6 mM NAD+, 30 nM HSD17B13 enzyme (E. coli expressed His-tagged), 2 hours at 26.5° C.
# Summary of the method: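 His-tagged E. coli-expressed HSD17B13 (30 nM) with 4 μM estradiol and 6 mM NAD+ in 1 M potassium phosphate pH 7.4, 0.5% DMSO, 2 h at 26.5° C. Estrone and estradiol quantified by LC-MS/MS after MeCN quench with D4-estrone internal standard; activity as % of uninhibited enzyme, IC50 by four-parameter fit, duplicates.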
# Chain of HSD17B13 (Q7Z5P4 20-300): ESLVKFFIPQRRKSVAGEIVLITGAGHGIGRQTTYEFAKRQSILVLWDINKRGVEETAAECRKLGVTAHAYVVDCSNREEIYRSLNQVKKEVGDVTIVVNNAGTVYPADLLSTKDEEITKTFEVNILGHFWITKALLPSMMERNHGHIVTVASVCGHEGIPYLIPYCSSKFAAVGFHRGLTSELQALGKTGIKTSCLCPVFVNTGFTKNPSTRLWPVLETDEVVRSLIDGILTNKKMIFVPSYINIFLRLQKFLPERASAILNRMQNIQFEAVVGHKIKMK
row,Compound,IC50 [µM]
1,"O=C(Nc1cccc2ncn([C@H]3C[C@@H]3c3ccccc3)c(=O)c12)c1cc(Cl)c(O)c(Cl)n1 [Example 109, 4,6-dichloro-5-hydroxy-N-(4-oxo-3-((1S,2R)-2-phenylcyclopropyl)-3,4-dihydroquinazolin-5-yl)picolinamide]",1 to 10
2,"O=C(Nc1cccc2ncn(Cc3ncccc3F)c(=O)c12)c1cc(Cl)c(O)c(Cl)c1 [Example 130, 3,5-dichloro-N-{3-[(3-fluoropyridin-2-yl)methyl]-4-oxo-3,4-dihydroquinazolin-5-yl}-4-hydroxybenzamide]",0.1 to 0.5
3,"Cc1nc2c(F)ccc(NC(=O)c3cc(Cl)c(O)c(Cl)c3)c2c(=O)n1Cc1cccc(C(F)(F)F)n1 [Example 197, 3,5-dichloro-N-(8-fluoro-2-methyl-4-oxo-3-((6-(trifluoromethyl)pyridin-2-yl)methyl)-3,4-dihydroquinazolin-5-yl)-4-hydroxybenzamide]",0.5 to 1
4,"O=C(Nc1cccc2ncn(Cc3nncs3)c(=O)c12)c1cc(Cl)c(O)c(Cl)c1 [Example 14, N-(3-((1,3,4-thiadiazol-2-yl)methyl)-4-oxo-3,4-dihydroquinazolin-5-yl)-3,5-dichloro-4-hydroxybenzamide]",1 to 10
5,"Cc1nc2c(F)ccc(NC(=O)c3cc(Cl)c(O)c(Cl)c3)c2c(=O)n1Cc1ncccc1C(F)(F)F [Example 154, 3,5-dichloro-N-(8-fluoro-2-methyl-4-oxo-3-((3-(trifluoromethyl)pyridin-2-yl)methyl)-3,4-dihydroquinazolin-5-yl)-4-hydroxybenzamide]",≤ 0.1
6,"O=C(Nc1cccc2ncn(Cc3cccnc3Cl)c(=O)c12)c1cc(Cl)c(O)c(Cl)c1 [Example 122, 3,5-dichloro-N-(3-((2-chloropyridin-3-yl)methyl)-4-oxo-3,4-dihydroquinazolin-5-yl)-4-hydroxybenzamide]",0.1 to 0.5
7,"O=C(Nc1cccc2ncn(Cc3ccccc3C(F)(F)F)c(=O)c12)c1cc(Cl)c(O)c(Cl)n1 [Example 43, 4,6-dichloro-5-hydroxy-N-(4-oxo-3-(2-(trifluoromethyl)benzyl)-3,4-dihydroquinazolin-5-yl)picolinamide]",≤ 0.1
8,"Cc1ccc(NC(=O)c2cc(Cl)c(O)c(Cl)c2)c2c(=O)n(Cc3ncccc3C(F)(F)F)c(C(F)F)nc12 [Example 164, 3,5-dichloro-N-(2-(difluoromethyl)-8-methyl-4-oxo-3-((3-(trifluoromethyl)pyridin-2-yl)methyl)-3,4-dihydroquinazolin-5-yl)-4-hydroxybenzamide]",0.1 to 0.5
9,"CC(C)(C)n1ccc(Cn2cnc3cccc(NC(=O)c4cc(Cl)c(O)c(Cl)n4)c3c2=O)n1 [Example 62, N-(3-((1-(tert-butyl)-1H-pyrazol-3-yl)methyl)-4-oxo-3,4-dihydroquinazolin-5-yl)-4,6-dichloro-5-hydroxypicolinamide]",0.1 to 0.5
10,"Cc1nc2c(F)ccc(NC(=O)c3cc(Cl)c(O)c(Cl)n3)c2c(=O)n1[C@H]1CC[C@@H]1c1ccccc1 [Example 207, 4,6-dichloro-N-(8-fluoro-2-methyl-4-oxo-3-((1S,2R)-2-phenylcyclobutyl)-3,4-dihydroquinazolin-5-yl)-5-hydroxypicolinamide]",0.1 to 0.5
11,"O=C(Nc1ccc(F)c2ncn(Cc3ccccc3C(F)(F)F)c(=O)c12)c1cc(Cl)c(O)c(Cl)n1 [Example 206, 4,6-dichloro-N-(8-fluoro-4-oxo-3-(2-(trifluoromethyl)benzyl)-3,4-dihydroquinazolin-5-yl)-5-hydroxypicolinamide]",≤ 0.1
12,"C[C@@H](c1cccc(F)c1)n1cnc2cccc(NC(=O)c3cc(Cl)c(O)c(Cl)n3)c2c1=O [Example 41, 4,6-dichloro-N-{3-[(1S)-1-(3-fluorophenyl)ethyl]-4-oxo-3,4-dihydroquinazolin-5-yl}-5-hydroxypyridine-2-carboxamide]",≤ 0.1
13,"N#Cc1ccccc1Cn1cnc2cccc(NC(=O)c3cc(Cl)c(O)c(Cl)n3)c2c1=O [Example 66, 4,6-dichloro-N-(3-(2-cyanobenzyl)-4-oxo-3,4-dihydroquinazolin-5-yl)-5-hydroxypicolinamide]",0.1 to 0.5
14,"O=C(Nc1cccc2ncn(Cc3ccc(F)cc3)c(=O)c12)c1cc(Cl)c(O)c(Cl)n1 [Example 42, 4,6-dichloro-N-{3-[(4-fluorophenyl)methyl]-4-oxo-3,4-dihydroquinazolin-5-yl}-5-hydroxypyridine-2-carboxamide]",0.1 to 0.5
15,"Cc1ccc(NC(=O)c2cc(Cl)c(O)c(Cl)c2)c2c(=O)n(Cc3ccccc3C(F)(F)F)c(C(F)F)nc12 [Example 167, 3,5-dichloro-N-(2-(difluoromethyl)-8-methyl-4-oxo-3-(2-(trifluoromethyl)benzyl)-3,4-dihydroquinazolin-5-yl)-4-hydroxybenzamide]",≤ 0.1
16,"Cc1ccc(NC(=O)c2cc(Cl)c(O)c(Cl)c2)c2c(=O)n(Cc3ncccc3Cl)c(C)nc12 [Example 172, 3,5-dichloro-N-(3-((3-chloropyridin-2-yl)methyl)-2,8-dimethyl-4-oxo-3,4-dihydroquinazolin-5-yl)-4-hydroxybenzamide]",0.1 to 0.5
17,"O=C(Nc1cccc2ncn(Cc3cnn4ccccc34)c(=O)c12)c1cc(Cl)c(O)c(Cl)c1 [Example 100, 3,5-dichloro-4-hydroxy-N-(4-oxo-3-(pyrazolo[1,5-a]pyridin-3-ylmethyl)-3,4-dihydroquinazolin-5-yl)benzamide]",0.1 to 0.5

# Further lines, results first:
row,IC50 [µM],Compound
1,> 10,"O=C(NCc1ccccc1OC(F)(F)F)C1CCCN1C(=O)c1cc(Cl)c(O)c(Cl)c1 (centres unmarked) [Example 128, 1-(3,5-dichloro-4-hydroxybenzoyl)-N-(2-(trifluoromethoxy)benzyl) pyrrolidine-2-carboxamide]"
2,≤ 0.1,"O=C(Nc1scnc1C(=O)NCc1ccccc1OC(F)(F)F)c1cc(Cl)c(O)c(Cl)c1 [Example 32, 5-(3,5-dichloro-4-hydroxybenzamido)-N-(2-(trifluoromethoxy)benzyl)thiazole-4-carboxamide]"
3,0.1 to 0.5,"O=C(Nc1cccc2ncn(Cc3cccnc3OC(F)(F)F)c(=O)c12)c1cc(Cl)c(O)c(Cl)c1 [Example 87, 3,5-dichloro-4-hydroxy-N-(4-oxo-3-((2-(trifluoromethoxy)pyridin-3-yl)methyl)-3,4-dihydroquinazolin-5-yl)benzamide]"
4,0.1 to 0.5,"O=C(Nc1cnccc1C(=O)NCc1ccccc1OC(F)(F)F)c1cc(Cl)c(O)c(Cl)c1 [Example 73, 3-(3,5-dichloro-4-hydroxybenzamido)-N-(2-(trifluoromethoxy)benzyl) isonicotinamide]"
5,0.1 to 0.5,"Cc1nc2c(F)ccc(NC(=O)c3cc(Cl)c(O)c(Cl)c3)c2c(=O)n1[C@@H](C)c1ccccc1OC(F)(F)F [Example 173, (S)-3,5-dichloro-N-(8-fluoro-2-methyl-4-oxo-3-(1-(2-(trifluoromethoxy)phenyl)ethyl)-3,4-dihydroquinazolin-5-yl)-4-hydroxybenzamide]"
6,0.1 to 0.5,"CC(c1ccccc1OC(F)(F)F)n1cnc2cccc(NC(=O)c3cc(Cl)c(O)c(Cl)c3)c2c1=O (centres unmarked) [Example 74, 3,5-dichloro-4-hydroxy-N-(4-oxo-3-(1-(2-(trifluoromethoxy)phenyl)ethyl)-3,4-dihydroquinazolin-5-yl)benzamide]"
7,0.1 to 0.5,"Cc1ccc2ncn(Cc3ccccc3OC(F)(F)F)c(=O)c2c1NC(=O)c1cc(Cl)c(O)c(Cl)c1 [Example 94, 3,5-dichloro-4-hydroxy-N-(6-methyl-4-oxo-3-(2-(trifluoromethoxy)benzyl)-3,4-dihydroquinazolin-5-yl)benzamide]"
8,≤ 0.1,"Cc1nc2nccc(NC(=O)c3cc(Cl)c(O)c(Cl)c3)c2c(=O)n1Cc1ccccc1OC(F)(F)F [Example 96, 3,5-dichloro-4-hydroxy-N-(2-methyl-4-oxo-3-(2-(trifluoromethoxy)benzyl)-3,4-dihydropyrido[2,3-d]pyrimidin-5-yl)benzamide]"
9,0.5 to 1,"O=C(Nc1scnc1C(=O)NCc1cccc(C(F)(F)F)n1)c1cc(Cl)c(O)c(Cl)c1 [Example 198, 5-(3,5-dichloro-4-hydroxybenzamido)-N-((6-(trifluoromethyl)pyridin-2-yl)methyl)thiazole-4-carboxamide]"
10,≤ 0.1,"Cn1c(=O)n(Cc2ccccc2OC(F)(F)F)c(=O)c2c(NC(=O)c3cc(Cl)c(O)c(Cl)c3)cccc21 [Example 93, 3,5-dichloro-4-hydroxy-N-(1-methyl-2,4-dioxo-3-(2-(trifluoromethoxy)benzyl)-1,2,3,4-tetrahydroquinazolin-5-yl)benzamide]"
11,0.5 to 1,"O=C(NC1CCCC1C(=O)NCc1ccccc1OC(F)(F)F)c1cc(Cl)c(O)c(Cl)n1 (centres unmarked) [Example 134, 4,6-dichloro-5-hydroxy-N-[2-({[2-(trifluoromethoxy)phenyl]methyl}carbamoyl)cyclopentyl] pyridine-2-carboxamide]"
12,≤ 0.1,"O=C(Nc1ccc(F)c2ncn(Cc3ccccc3OC(F)(F)F)c(=O)c12)c1cc(Cl)c(O)c(Cl)c1 [Example 132, 3,5-dichloro-N-(8-fluoro-4-oxo-3-{[2-(trifluoromethoxy)phenyl]methyl}-3,4-dihydroquinazolin-5-yl)-4-hydroxybenzamide]"
13,0.1 to 0.5,"O=C(Nc1ccc(Cl)c2ncn(Cc3ccccc3OC(F)(F)F)c(=O)c12)c1cc(Cl)c(O)c(Cl)n1 [Example 90, 4,6-dichloro-N-(8-chloro-4-oxo-3-(2-(trifluoromethoxy)benzyl)-3,4-dihydroquinazolin-5-yl)-5-hydroxypicolinamide]"
14,0.1 to 0.5,"Cc1nc2c(F)ccc(NC(=O)c3cc(Cl)c(O)c(Cl)c3)c2c(=O)n1C(C)c1ccccc1OC(F)(F)F (centres unmarked) [Example 157, 3,5-dichloro-N-(8-fluoro-2-methyl-4-oxo-3-(1-(2-(trifluoromethoxy)phenyl)ethyl)-3,4-dihydroquinazolin-5-yl)-4-hydroxybenzamide]"
15,0.1 to 0.5,"O=C(Nc1ccnc2ncn(Cc3ccccc3OC(F)(F)F)c(=O)c12)c1cc(Cl)c(O)c(Cl)c1 [Example 92, 3,5-dichloro-4-hydroxy-N-(4-oxo-3-(2-(trifluoromethoxy)benzyl)-3,4-dihydropyrido[2,3-d]pyrimidin-5-yl)benzamide]"
